{"source": "patent US10335411B2", "about": "“Administration of ubiquitin-activating enzyme inhibitor and radiation” (Millennium Pharmaceuticals, Inc., priority 2014, dated 2019)", "key": {"HN-13-0014 xenograft": {"tested_on": "HN-13-0014 xenograft", "assay": "HN-13-0014 xenograft model, Compound 1 and radiation", "type": "in vivo, mice", "text": "The HN-13-0014 xenograft model is a human head and neck primary tumor model. Approximately nine week old female BALB/c nude (Shanghai Sino-British SIPPR/BK Laboratory Animal Co., LTD.) mice were implanted subcutaneously with approximate 30 mm^3 HN-13-0014 tumor slices in the right flank. When the mean tumor volume reached approximately 162 mm^3, the animals were randomized into 10 treatment groups (n=8/group).\nCompound 1 [((1R,2R,3S,4R)-2,3-dihydroxy-4-(2-(3-(trifluoromethylthio) ? phenyl)pyrazolo[1,5-a]pyrimidin-7-ylamino)cyclopentyl)methyl sulfamate] is formulated in 10% HPbCD in sterile water and administered intravenously on a BIW (twice/week schedule; Monday and Thursday, i.e. days 0, 3, 7, 10, 14, 17) for 3 weeks in the HN-13-0014 and LU-01-0030 (first study) models. Compound 1 formulation was prepared weekly and stored at room temperature in the dark.\nBeam-focused radiation was delivered using a either 1 or 2 Gray dosed on days 0, 1, 7, and 8 or on days 0, 3, 7, and 10 in the HN-13-0014 and LU-01-0030 (first study) models. A Rad Source RS-2000 X-ray irradiator was used for therapy (Rad Source). Before radiation, animals were anesthetized by i.p. injection using 1.0% sodium pentobarbital at 80 mg/kg (Vendor: Sigma). Focused radiation was applied to each mouse at 1 Gy/min.\nTumors were measured twice weekly using vernier calipers. Tumor volumes were calculated using the following formula: (0.5×[length×width^2]). Treatment groups and dosing/treatment schedules are indicated in Tables 1a, 2a, 3a, 4a, and 5a below. Tumor size and body weight are measured approximately twice a week for the duration of the study. Mice are euthanized when their tumor volume reached approximately 1000 mm^3. Tumor growth continued to be monitored after the dosing period in some studies. In Tables 1a, 2a, 3a, 4a, and 5a tumor volumes are shown for HN-13-0014 (day 21), LU-01-0030 (day 21), the second LU-01-0030 study (day 20), LU-01-0266 (day 20), ST-02-0004 (day 21) and FIN-13-0007 (day 24), respectively. Average tumor volume is reported as a function of time for selected groups of selected studies.\nMeasurements from day 0 to day 20, day 21 or day 24 are analyzed as specified in Tables below. All tumor volumes have a value of 1 added to them before log10 transformation. For each animal, the log tumor volume at day 0 is subtracted from the log tumor volume on the subsequent days. This difference vs. time is used to calculate an area under the curve (AUC) for each animal using the trapezoid rule. In instances when an animal in a treatment group is removed early from the study, the last observed tumor value is carried forward through all subsequent time points. The synergy score for the combination of agents A and B is defined as 100*(mean(AUCAB)−mean(AUCA)−mean(AUCB)+mean(AUCctl))/mean(AUCctl): where AUCAB, AUCA, AUCB, and AUCctl are the AUC values for animals in the combination group, the A group, the B group, and the control group, respectively. The standard error of the synergy score is computed based on the variation in the AUC values among the animals. […] If the P-value is above 0.05, then the combination is considered to be additive. If the P-value is below 0.05, and the synergy score is less than zero, then the combination is considered to be synergistic. If the P-value is below 0.05 and the synergy score was greater than zero, but the mean AUC for the combination was lower than the lowest mean AUC among the two single agent treatments, then the combination was sub-additive. If the P-value is below 0.05 and if the synergy score was greater than zero, and the mean AUC for the combination was greater than the mean AUC for at least one of the single agent treatments, then the combination was antagonistic."}, "HCT-116 cells": {"tested_on": "HCT-116 cells", "assay": "In vitro colony formation assay", "type": "cell-based", "settings": "after 10 days, replicate wells", "experimental": "General Method: HCT-116 cells are grown in McCoy's 5A Medium supplemented with 10% fetal bovine serum. Cells are seeded (200/well) on a 12-well plate. The next day cells are treated with increasing concentrations of Compound 1 (in medium) and 2 hours later irradiated with 0, 2 or 4 gray. After an additional 6 hour, medium is replaced with and without (washout condition) Compound 1. After 10 days the number of colonies is counted and recorded. Radiator used is an X-ray irradiator (MBR-1520R-3, Hitachi Power Solutions Co., Ltd.).\nTen days following initiation of treatment, the number of HCT-116 colonies per well is counted using GelCount™ (Oxford Optronix Ltd.) and the raw data results are indicated in Table 6."}, "[1]": {"settings": "6.25 mg/kg Compound 1 + 2 Gy Radiation D0, 1, 7, 8"}, "[2]": {"settings": "6.25 mg/kg Compound 1 + 2 Gy Radiation D0, 3, 7, 10"}, "[3]": {"settings": "15 mg/kg Compound 1 + 2 Gy Radiation D0, 1, 7, 8"}, "[4]": {"settings": "15 mg/kg Compound 1 + 2 Gy Radiation D0, 3, 7, 10"}}, "note": "Values joined by “and” are separate entries in the source; they are usually repeats but may differ in a detail not shown here. Equal entries are not always repeated."}
{"compound": "NS(=O)(=O)OC[C@H]1C[C@@H](Nc2ccnc3cc(-c4cccc(SC(F)(F)F)c4)nn23)[C@H](O)[C@@H]1O", "note": "[Compound 1, ((1R,2R,3S,4R)-2,3-dihydroxy-4-(2-(3-(trifluoromethylthio)phenyl)pyrazolo[1,5-a]pyrimidin-7-ylamino)cyclopentyl)methyl sulfamate]", "values": [{"measurement": "Classification", "setting": "HN-13-0014 xenograft; [1]", "value": "Additive (If the P-value is above 0.05, then the combination is considered to be additive)"}, {"measurement": "Synergy score", "setting": "HN-13-0014 xenograft; [1]", "value": 8.6}, {"measurement": "Classification", "setting": "HN-13-0014 xenograft; [2]", "value": "Additive (If the P-value is above 0.05, then the combination is considered to be additive)"}, {"measurement": "Synergy score", "setting": "HN-13-0014 xenograft; [2]", "value": 7.7}, {"measurement": "Tumor Volume Day 21", "setting": "HN-13-0014 xenograft; 6.25 mg/kg Compound 1 IV BIWx3 + 2 Gy Radiation Beam D 0, 1, 7, 8", "value": 392.7, "unit": "mm^3"}, {"measurement": "Tumor Volume Day 21", "setting": "HN-13-0014 xenograft; 6.25 mg/kg Compound 1 IV BIWx3 + 2 Gy Radiation Beam D 0, 3, 7, 10", "value": 381.9, "unit": "mm^3"}, {"measurement": "Tumor Volume Day 21", "setting": "HN-13-0014 xenograft; 6.25 mg/kg Compound 1 IV BIWx3, single agent", "value": 575.9, "unit": "mm^3"}, {"measurement": "Classification", "setting": "HN-13-0014 xenograft; [3]", "value": "Additive (If the P-value is above 0.05, then the combination is considered to be additive)"}, {"measurement": "Synergy score", "setting": "HN-13-0014 xenograft; [3]", "value": 7.9}, {"measurement": "Classification", "setting": "HN-13-0014 xenograft; [4]", "value": "Additive (If the P-value is above 0.05, then the combination is considered to be additive)"}, {"measurement": "Synergy score", "setting": "HN-13-0014 xenograft; [4]", "value": 3.2}, {"measurement": "Tumor Volume Day 21", "setting": "HN-13-0014 xenograft; 15 mg/kg Compound 1 IV BIWx3 + 2 Gy Radiation Beam D 0, 1, 7, 8", "value": 372.4, "unit": "mm^3"}, {"measurement": "Tumor Volume Day 21", "setting": "HN-13-0014 xenograft; 15 mg/kg Compound 1 IV BIWx3 + 2 Gy Radiation Beam D 0, 3, 7, 10", "value": 356.2, "unit": "mm^3"}, {"measurement": "Tumor Volume Day 21", "setting": "HN-13-0014 xenograft; 15 mg/kg Compound 1 IV BIWx3, single agent", "value": 539.9, "unit": "mm^3"}, {"measurement": "combination effect", "setting": "HN-13-0014 xenograft; Compound 1 with 2 Gy radiation", "value": "additive combination effect"}, {"measurement": "anti-tumor activity compared to vehicle control", "setting": "HN-13-0014 xenograft; single agent, IV at 6.25 and 15 mg/kg BIW for 3 weeks", "value": "modest anti-tumor activity"}, {"measurement": "Number of Colonies/well", "setting": "HCT-116 cells; Washout No, Radiation 0 Gray, Compound 1 30 nM", "value": 0}, {"measurement": "Number of Colonies/well", "setting": "HCT-116 cells; Washout No, Radiation 0 Gray, Compound 1 100 nM", "value": 0}, {"measurement": "Number of Colonies/well", "setting": "HCT-116 cells; Washout No, Radiation 0 Gray, Compound 1 300 nM", "value": 0}, {"measurement": "Number of Colonies/well", "setting": "HCT-116 cells; Washout No, Radiation 2 Gray, Compound 1 30 nM", "value": 0}, {"measurement": "Number of Colonies/well", "setting": "HCT-116 cells; Washout No, Radiation 2 Gray, Compound 1 100 nM", "value": 0}, {"measurement": "Number of Colonies/well", "setting": "HCT-116 cells; Washout No, Radiation 2 Gray, Compound 1 300 nM", "value": 0}, {"measurement": "Number of Colonies/well", "setting": "HCT-116 cells; Washout No, Radiation 4 Gray, Compound 1 30 nM", "value": 0}, {"measurement": "Number of Colonies/well", "setting": "HCT-116 cells; Washout No, Radiation 4 Gray, Compound 1 100 nM", "value": 0}, {"measurement": "Number of Colonies/well", "setting": "HCT-116 cells; Washout No, Radiation 4 Gray, Compound 1 300 nM", "value": 0}, {"measurement": "Number of Colonies/well", "setting": "HCT-116 cells; Washout Yes, Radiation 0 Gray, Compound 1 30 nM", "value": "20 (2×) and 26"}, {"measurement": "Number of Colonies/well", "setting": "HCT-116 cells; Washout Yes, Radiation 0 Gray, Compound 1 100 nM", "value": "1 (2×) and 0"}, {"measurement": "Number of Colonies/well", "setting": "HCT-116 cells; Washout Yes, Radiation 0 Gray, Compound 1 300 nM", "value": 0}, {"measurement": "Number of Colonies/well", "setting": "HCT-116 cells; Washout Yes, Radiation 2 Gray, Compound 1 30 nM", "value": "3 and 7 and 6"}, {"measurement": "Number of Colonies/well", "setting": "HCT-116 cells; Washout Yes, Radiation 2 Gray, Compound 1 100 nM", "value": 0}, {"measurement": "Number of Colonies/well", "setting": "HCT-116 cells; Washout Yes, Radiation 2 Gray, Compound 1 300 nM", "value": 0}, {"measurement": "Number of Colonies/well", "setting": "HCT-116 cells; Washout Yes, Radiation 4 Gray, Compound 1 30 nM", "value": "1 (2×) and 4"}, {"measurement": "Number of Colonies/well", "setting": "HCT-116 cells; Washout Yes, Radiation 4 Gray, Compound 1 100 nM", "value": "0 (2×) and 1"}, {"measurement": "Number of Colonies/well", "setting": "HCT-116 cells; Washout Yes, Radiation 4 Gray, Compound 1 300 nM", "value": 0}]}
